From ChEMBL document CHEMBL1795233, “The geranyl-modified tryptophan residue is crucial for ComXRO-E-2 pheromone biological activity” (Bioorg Med Chem Lett, 2011) come the findings set out here.

*1 amine or outer side, *2 acyl side, *3 side chain or, on linkers, in order; H or OH if unused. Where a SMILES comes first, the peptide text is derived from it. [ ]: non-standard residue; d: D form. X2 = CC(C)=CCC/C(C)=C/CC/C(C)=C/C[C@]12C[C@@H](C(=O)[*:2])N([*:1])[C@H]1Nc1ccccc12; X4 = CC(C)=CCC/C(C)=C/C[C@]12C[C@@H](C(=O)[*:2])N([*:1])[C@H]1Nc1ccccc12; X1 = C/C(=C\C[C@]12C[C@@H](C(=O)[*:2])N([*:1])[C@H]1Nc1ccccc12)CCCC(C)C; X3 = CC(C)=CC[C@]12C[C@@H](C(=O)[*:2])N([*:1])[C@H]1Nc1ccccc12 Where only a bound is given, the exact number is not on record here.

In general, EC25 refers to the point of the concentration-response curve where the effect stands at 25%. Broadly, the Emax is the size of the effect at its maximum, as opposed to the concentration needed. In general, EC50 refers to the concentration needed to bring the measured effect to its halfway point.

Test [1] deals with Bacillus subtilis. As to the kind of experiment: Effect on quorum sensing-mediated genetic competence in Bacillus subtilis expressing srfA-lacZ fusion assessed as concentration required to show same activity at EC25 of ComXRO-E-2 pheromone after 5 hrs by beta-galactosidase assay.
Test [2] relates to Bacillus subtilis. In words: Effect on quorum sensing-mediated genetic competence in Bacillus subtilis expressing srfA-lacZ fusion assessed as maximum activity after 5 hrs by beta-galactosidase assay relative to ComXRO-E-2 pheromone.
A short description of test [3]: Effect on quorum sensing-mediated genetic competence in Bacillus subtilis expressing srfA-lacZ fusion assessed as concentration required to show same activity at EC50 of ComXRO-E-2 pheromone after 5 hrs by beta-galactosidase assay.

With `CC[C@H](C)[C@H](NC(=O)CN)C(=O)N[C@@H](Cc1ccccc1)C(=O)N1[C@H]2Nc3ccccc3[C@@]2(C/C=C(\C)CCCC(C)C)C[C@H]1C(=O)N[C@@H](CCC(=O)O)C(=O)N[C@@H](CCC(N)=O)C(=O)O` (H-GIF[X1]EQ-OH), the EC25 in test [1] turned out to be 2 nM. The maximal effect (Emax) in test [2] stood at 75%. For the same compound, the EC50 in test [3] amounted to 20 nM.
On to `CC(C)=CCC/C(C)=C/C[C@]12C[C@@H](C(=O)N[C@@H](C)C(=O)O)N(C(=O)[C@H](C)N)[C@H]1Nc1ccccc12`, for which the EC25 in test [1] was above 300 nM. Further, the Emax in test [2] is 15%. Also, the half-maximal effective concentration (EC50) in test [3] is above 300 nM.
For the compound `CC(C)=CCC/C(C)=C/C[C@]12C[C@@H](C(N)=O)N(C(=O)[C@@H](N)Cc3ccccc3)[C@H]1Nc1ccccc12`, in test [1], the EC25 worked out at 50 nM. The Emax in test [2] was 35%. Further, in test [3], the concentration giving a half-maximal response (EC50) is above 300 nM.
Take `CC(C)=CCC/C(C)=C/C[C@]12C[C@@H](C(=O)N[C@@H](C)C(=O)O)N(C(=O)[C@@H]3CCCN3)[C@H]1Nc1ccccc12`: the EC25 in test [1] was above 300 nM. In test [2], the Emax is 5%. For the same compound, the concentration for a half-maximal effect (EC50) in test [3] is above 300 nM.
In the case of `CC[C@H](C)[C@H](N)C(=O)N1[C@H]2Nc3ccccc3[C@@]2(C/C=C(\C)CCC=C(C)C)C[C@H]1C(=O)N[C@@H](C)C(=O)O`, the EC25 in test [1] was 20 nM. The Emax in test [2] was determined as 35%. Further, the EC50 in test [3] is above 300 nM.
With `CC(C)=CCC/C(C)=C/C[C@]12C[C@@H](C(=O)N[C@@H](CCC(=O)O)C(=O)O)N(C(=O)[C@H](C)N)[C@H]1Nc1ccccc12`, the EC25 in test [1] was above 300 nM. For the same compound, the Emax in test [2] turned out to be 20%. The EC50 in test [3] is above 300 nM.
On to `CC(C)=CCC/C(C)=C/C[C@]12C[C@@H](C(=O)N[C@@H](C)C(=O)O)N(C(=O)[C@@H](N)Cc3cc4ccccc4[nH]3)[C@H]1Nc1ccccc12`, for which the EC25 in test [1] is above 300 nM. For the same compound, the maximum response (Emax) in test [2] amounted to 15%. Further, in test [3], the EC50 is above 300 nM.
Take `CC(C)=CCC/C(C)=C/C[C@]12C[C@H]3C(=O)N[C@@H](Cc4ccccc4)C(=O)N3[C@H]1Nc1ccccc12`: the EC25 in test [1] is above 300 nM. Besides, the Emax in test [2] is 5%. Also, the EC50 in test [3] is above 300 nM.
For the compound `CC(C)=CCC/C(C)=C/C[C@]12C[C@@H](C(=O)NCC(=O)O)N(C(=O)C(N)Cc3ccccc3)[C@H]1Nc1ccccc12` (single isomer, unassigned), in test [1], the EC25 was 200 nM. The Emax in test [2] amounted to 40%. In addition, the EC50 in test [3] was above 300 nM.
As for `COC(=O)[C@@H]1C[C@]2(C/C=C(\C)CCC=C(C)C)c3ccccc3N[C@@H]2N1C(=O)[C@H](Cc1ccccc1)NC(C)=O`, the EC25 in test [1] is above 300 nM. The Emax in test [2] is 10%. For the same compound, the EC50 in test [3] is above 300 nM.
On to `CC(C)=CCC/C(C)=C/C[C@]12C[C@@H](C(=O)N[C@@H](C)C(=O)O)N(C(=O)[C@@H](N)CC(C)C)[C@H]1Nc1ccccc12`, for which the EC25 in test [1] is above 300 nM. Moreover, the Emax in test [2] was found to be 20%. In addition, the EC50 in test [3] was above 300 nM.
Turning to `CC(C)=CCC/C(C)=C/C[C@]12C[C@@H](C(=O)N[C@@H](C)C(=O)O)N(C(=O)[C@@H](N)Cc3ccc(O)cc3)[C@H]1Nc1ccccc12`, the EC25 in test [1] turned out to be 100 nM. Further, the Emax in test [2] turned out to be 25%. The EC50 in test [3] is above 300 nM.
For `CC(C)=CCC/C(C)=C/C[C@]12C[C@@H](C(=O)N[C@@H](C)C(=O)O)N(C(=O)[C@@H](N)CC(N)=O)[C@H]1Nc1ccccc12` the same measures were above 300 nM, 5% and above 300 nM.
With `CC(C)=CCC/C(C)=C/C[C@]12C[C@@H](C(=O)N[C@@H](C)C(=O)O)N(C(=O)C(N)Cc3ccccc3)[C@H]1Nc1ccccc12` (single isomer, unassigned), the EC25 in test [1] was 3 nM. Also, in test [2], the Emax is 70%. For the same compound, the EC50 in test [3] was 60 nM.
`CC[C@H](C)[C@H](NC(=O)CN)C(=O)N[C@@H](Cc1ccccc1)C(=O)N1[C@H]2Nc3ccccc3[C@@]2(C/C=C(\C)CCC=C(C)C)C[C@H]1C(=O)N[C@@H](CCC(=O)O)C(=O)N[C@@H](CCC(N)=O)C(=O)O` (H-GIF[X4]EQ-OH): the EC25 in test [1] came out at 0.3 nM. The EC50 in test [3] is 1 nM.
With `CC[C@H](C)[C@H](NC(=O)CN)C(=O)N[C@@H](Cc1ccccc1)C(=O)N1[C@H]2Nc3ccccc3[C@@]2(CC=C(C)C)C[C@H]1C(=O)N[C@@H](CCC(=O)O)C(=O)N[C@@H](CCC(N)=O)C(=O)O` (H-GIF[X3]EQ-OH), the EC25 in test [1] is above 300 nM. The Emax in test [2] was found to be 0%. For the same compound, the EC50 in test [3] is above 300 nM.
Turning to `CC(C)=CCC/C(C)=C/C[C@]12C[C@@H](C(=O)N[C@@H](CCC(=O)O)C(=O)O)N(C(=O)C(N)Cc3ccccc3)[C@H]1Nc1ccccc12` (single isomer, unassigned), the EC25 in test [1] was 8 nM. Further, in test [2], the Emax stood at 60%. Further, the EC50 in test [3] is 20 nM.
As for `CC(C)=CCC/C(C)=C/C[C@]12C[C@@H](C(N)=O)N(C(=O)c3ccccc3)[C@H]1Nc1ccccc12`, the EC25 in test [1] is above 300 nM. Further, the Emax in test [2] was 0%. Moreover, the EC50 in test [3] is above 300 nM.
For the compound `CC[C@H](C)[C@H](NC(=O)CN)C(=O)N[C@@H](Cc1ccccc1)C(=O)N1[C@H]2Nc3ccccc3[C@@]2(CCC(C)CCCC(C)C)C[C@H]1C(=O)N[C@@H](CCC(=O)O)C(=O)N[C@@H](CCC(N)=O)C(=O)O` (mixture of isomers), the EC25 in test [1] stood at 200 nM. Moreover, the Emax in test [2] came to 40%. Also, in test [3], the EC50 was above 300 nM.
For `CC[C@H](C)[C@H](NC(=O)CN)C(=O)N[C@@H](Cc1ccccc1)C(=O)N1[C@H]2Nc3ccccc3[C@@]2(C/C=C(\C)CC/C=C(\C)CCC=C(C)C)C[C@H]1C(=O)N[C@@H](CCC(=O)O)C(=O)N[C@@H](CCC(N)=O)C(=O)O` (H-GIF[X2]EQ-OH) the same measures were 20 nM, 35% and above 300 nM.
